Experimental data: patent publication US20070217999A1, “Excretable Reporter Systems” (Roslin Institute (Edinburgh), priority 2003, published 2007)

What was measured:
[1] = system: rat Cyp1A1 promoter (Cyp1A1-SEAP reporter pCW2) in Hepa-C1C7 cells; assay: 3MC induced Cyp1A1-SEAP vector (pCW2) expression in transfected cells, SEAP activity in medium; assay type: cell-based; details: 48 hours after induction
Description: The sequence coding for 55.5 kD secreted alkaline phosphatase (SEAP), a truncated form of placental alkaline phosphatase enzyme that lacks the GPI anchor, was excised from pSEAP2-Basic (Clonetech) by first converting a BsmI restriction site by removing 3′-overhanging sequences and addition of BglII linker, then excision with BglII.
Hepa-C1C7 cells (cultured in DMEM supplemented with 10% FCS, 2 mM 1-glutamine, at 5% CO2) were transfected with pCW2 either transiently or stably (in conjunction with pSVNeo) using the calcium phosphate co-precipitation method. Briefly, 5 μg of plasmid (+1 μg pSVNeo for stable transfections) was mixed with calcium chloride and HEPES buffered saline to form a calcium phosphate-DNA precipitate which was left incubating with the cells for 5 hours. The medium was then replaced with fresh growth medium or with selection medium (growth medium supplemented with 400 μg/ml G418, for stable transfections). Transiently transfected cells were plated into 6 well plates and were incubated with increasing doses of 3MC dissolved in culture medium. For stable transfections, once individual colonies could be identified on the plates the colonies were pooled and incubated with 2 μg/ml 3MC. Forty eight hours after induction with 3MC the medium was assayed for SEAP activity.
SEAP activity was determined using the “SEAP reporter Gene Assay, chemiluminescent” (Roche). […]

[2] = system: Cyp1A1-SEAP transgene (rat Cyp1A1 promoter); assay: 3MC induced Cyp1A1-SEAP vector expression in transgenic mice, SEAP activity in urine and blood
Description: 3MC was administered to female and male mice (of at least 8 weeks of age) as a suspension in Mazola brand corn oil by i.p. injection. Test animals were either transgenic or non-transgenic age-matched animals with the same genotype were i.p. injected once every 24 hours with either 40 mg/kg or 0.4 mg/kg body weight 3-methylcholanthrene (3MC) in maize oil for three consecutive injections. Control animals were injected with an equal volume of carrier corn oil only. All animals were killed by cervical dislocation 24 hours following the final dose.
Samples of the liver and kidney were removed, washed once in phosphate buffered saline and then homogenised in HB buffer (140 mM NaCl, 50 mM Tris-HCl pH 7.5, 1 mM EDTA, 1% w/v Triton X-100) using a dounce glass homogeniser until a smooth solution was formed. Insoluble proteins were removed by centrifugation at 13000 rpm for 5 minutes and the cleared supernatant was assayed for protein content using the Pierce protein determination kit. For each tissue a final concentration of 0.8 mg/ml was used in the SEAP assay.
Urine and blood samples were centrifuged at 5000 rpm for 5 minutes to remove any solid waste (from the urine) or coagulated cells (from the blood) and were assayed for SEAP activity immediately. Urine was used undiluted in the assay, whereas blood samples were diluted 1:100 and 1:500 with distilled water prior to the SEAP assay. SEAP activity was assayed as described in example 2.

[3] = system: SFN-hCG(myc) reporter transgene (stratifin promoter) in PC3 xenograft tumours; assay: Induced SFN-hCG(myc) transgene expression from xenografted PC3 cell line in vivo, urinary hCG(myc) by sandwich ELISA; design: species or system nude mice; details: single i.p. camptothecin 15 mg/kg; urine 24 hours after administration; versus vehicle only; FIG. 7
Description: The SFN-hCG(myc)-Amp reporter construct generated as described under example 5, was transfected into PC3 cells on 6-well tissue culture plates using FuGene reagent (Roche, Lewes, East Sussex). Construct DNA (equivalent to 1 μg/well) was added to FuGene reagent (3 μl/well) and made up to 100 μl/well with serum free medium. The medium in which the cells were growing was aspirated off and replaced with 100 μl of the above mixture per well. After 24 hours the cells were trypsinised and transferred to 10 cm tissue culture dishes (one well of a six well plate per 10 cm dish). The cells were allowed to grow on these dishes for 7 days prior to selection. […]
The study consisted of 4 groups in total, each containing 4 animals. […] Tumour growth was measured twice-weekly following cell implantation until tumours reached 2-5 mm in diameter. Tumour volume (V) was calculated using the formula: V= 4/3π((d1+d2)/4)^3, where d=mean diameter (n=2)
Treatment began 5 weeks after tumour implantation. […] Quantities of bound HRP were then determined by reaction with tetramethylbenzidine (TMB) and absorbance measurement at 450 nm. No hCG(myc) was detected in the urine of mice carrying xenograft tumours resulting from injection of wild-type PC3 cells. However, hCG(myc) was detected in the urine of mice carrying xenograft tumours resulting from injection of PC3 cells transfected with the SFN-hCG(myc) reporter construct.

Cc1ccc2cc3c(ccc4ccccc43)c3c2c1CC3 [3MC, 3-methylcholanthrene]
SEAP activity in medium (3MC induction of pCW2) ([1]; pCW2 stably-transfected into Hepa1 cells, 2 μg/ml 3MC, FIG. 3): induction | SEAP activity in medium (3MC induction of pCW2) ([1]; pCW2 transiently-transfected into Hepa1 cells, increasing doses of 3MC, FIG. 2): induction | SEAP in urine of CYS31 transgenic mice ([2]; 0.4 mg/kg 3MC i.p., FIG. 6): appearance of SEAP in urine | Cyp1a1-SEAP activity detected in urine and blood ([2]; 40 mg/kg 3MC i.p. once every 24 hours, three injections, 3 out of 4 founder transgenic mice analysed (CYS48, CYS50, CYS31, CYS74), FIG. 4): induction | SEAP activity detected in the urine of transgenic mice ([2]; 3MC i.p., FIG. 5): induced SEAP activity

CC[C@@]1(O)C(=O)OCc2c1cc1n(c2=O)Cc2cc3ccccc3nc2-1 [camptothecin]
urinary hCG(myc) concentration (absorbance at 450 nm) [3]: increased urinary hCG(myc)
